ChEMBL document CHEMBL5236603, “Discovery of mobocertinib, a potent, oral inhibitor of EGFR exon 20 insertion mutations in non-small cell lung cancer” (Bioorg Med Chem Lett, 2023)

How the values were obtained:
[1] = AUClast in CD-1 mouse at 10 mg/kg, po by LC/MS/MS analysis; type: ADME, organism-based; parameters: dose 10 mg/kg, route po; conditions: in vivo
[2] = AUClast in CD-1 rat at 10 mg/kg, po by LC/MS/MS analysis; type: ADME, organism-based; parameters: dose 10 mg/kg, route po; conditions: in vivo
[3] = Toxicity in SCID mouse assessed as body weight change at 100 mg/kg, po administered for 7 consecutive days; type: organism-based; conditions: in vivo
[4] = biological target: Receptor tyrosine-protein kinase erbB-2 (Homo sapiens) (UniProt P04626); experiment: Inhibition of human HER2 at 1 uM by hotspot assay relative to control
Chain of Receptor tyrosine-protein kinase erbB-2 (Homo sapiens) (P04626 whole entry): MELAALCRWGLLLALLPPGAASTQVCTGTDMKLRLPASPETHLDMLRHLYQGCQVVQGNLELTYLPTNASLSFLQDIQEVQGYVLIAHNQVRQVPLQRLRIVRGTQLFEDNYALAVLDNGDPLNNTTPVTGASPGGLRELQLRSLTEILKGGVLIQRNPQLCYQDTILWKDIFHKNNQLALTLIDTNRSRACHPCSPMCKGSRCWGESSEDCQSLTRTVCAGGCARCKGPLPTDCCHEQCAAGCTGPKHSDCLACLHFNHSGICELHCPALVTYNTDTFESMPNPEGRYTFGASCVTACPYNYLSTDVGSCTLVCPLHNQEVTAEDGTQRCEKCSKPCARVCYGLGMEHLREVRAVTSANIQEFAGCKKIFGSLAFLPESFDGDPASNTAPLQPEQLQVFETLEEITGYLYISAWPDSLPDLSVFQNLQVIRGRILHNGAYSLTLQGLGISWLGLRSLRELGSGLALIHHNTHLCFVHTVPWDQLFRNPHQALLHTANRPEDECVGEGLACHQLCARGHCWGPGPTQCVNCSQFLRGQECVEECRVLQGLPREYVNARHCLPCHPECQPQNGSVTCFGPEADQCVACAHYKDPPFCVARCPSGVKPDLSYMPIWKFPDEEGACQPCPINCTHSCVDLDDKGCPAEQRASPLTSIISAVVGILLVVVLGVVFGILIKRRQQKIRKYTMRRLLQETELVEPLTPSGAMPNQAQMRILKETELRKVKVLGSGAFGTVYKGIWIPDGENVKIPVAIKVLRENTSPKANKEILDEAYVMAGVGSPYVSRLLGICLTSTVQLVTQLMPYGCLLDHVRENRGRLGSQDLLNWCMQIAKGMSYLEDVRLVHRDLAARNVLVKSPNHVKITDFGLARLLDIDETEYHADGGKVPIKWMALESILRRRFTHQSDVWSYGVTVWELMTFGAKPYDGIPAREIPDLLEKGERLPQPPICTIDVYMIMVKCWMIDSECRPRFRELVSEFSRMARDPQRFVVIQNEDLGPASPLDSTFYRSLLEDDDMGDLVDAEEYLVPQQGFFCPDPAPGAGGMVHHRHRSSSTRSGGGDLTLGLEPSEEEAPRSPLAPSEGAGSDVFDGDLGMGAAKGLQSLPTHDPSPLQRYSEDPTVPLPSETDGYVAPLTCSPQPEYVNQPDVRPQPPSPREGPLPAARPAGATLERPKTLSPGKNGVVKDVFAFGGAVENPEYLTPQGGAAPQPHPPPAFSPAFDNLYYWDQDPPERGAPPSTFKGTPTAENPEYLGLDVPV

[5] = biological target: T1, Tyrosine-protein kinase TXK (Homo sapiens) (UniProt P42681); experiment: Inhibition of human TXK at 1 uM by hotspot assay relative to control
T1 sequence (whole entry): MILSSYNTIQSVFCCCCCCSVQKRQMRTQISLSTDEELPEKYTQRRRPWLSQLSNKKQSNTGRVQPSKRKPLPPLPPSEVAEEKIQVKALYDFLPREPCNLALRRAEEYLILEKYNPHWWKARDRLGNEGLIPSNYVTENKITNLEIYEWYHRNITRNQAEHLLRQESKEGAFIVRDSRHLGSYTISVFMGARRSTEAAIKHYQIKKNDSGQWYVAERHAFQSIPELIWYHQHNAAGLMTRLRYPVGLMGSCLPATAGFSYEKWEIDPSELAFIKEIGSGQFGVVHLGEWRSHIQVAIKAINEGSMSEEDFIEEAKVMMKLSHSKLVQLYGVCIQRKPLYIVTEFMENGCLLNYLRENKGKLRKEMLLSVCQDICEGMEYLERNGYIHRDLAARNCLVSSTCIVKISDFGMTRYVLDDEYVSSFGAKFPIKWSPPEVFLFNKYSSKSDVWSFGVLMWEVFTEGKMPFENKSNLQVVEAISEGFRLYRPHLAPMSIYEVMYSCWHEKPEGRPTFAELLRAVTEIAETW

BaF3 [6] = experiment: Anticancer activity against parental mouse BaF3 cells assessed as cell viability incubated for 3 days by Cell Titer-Glo assay; type: functional, cell-based; conditions: BaF3, 72 h
[7] = biological target: T2, Tyrosine-protein kinase ITK/TSK (Homo sapiens) (UniProt Q08881); experiment: Inhibition of human ITK at 1 uM by hotspot assay relative to control
T2 sequence (whole entry): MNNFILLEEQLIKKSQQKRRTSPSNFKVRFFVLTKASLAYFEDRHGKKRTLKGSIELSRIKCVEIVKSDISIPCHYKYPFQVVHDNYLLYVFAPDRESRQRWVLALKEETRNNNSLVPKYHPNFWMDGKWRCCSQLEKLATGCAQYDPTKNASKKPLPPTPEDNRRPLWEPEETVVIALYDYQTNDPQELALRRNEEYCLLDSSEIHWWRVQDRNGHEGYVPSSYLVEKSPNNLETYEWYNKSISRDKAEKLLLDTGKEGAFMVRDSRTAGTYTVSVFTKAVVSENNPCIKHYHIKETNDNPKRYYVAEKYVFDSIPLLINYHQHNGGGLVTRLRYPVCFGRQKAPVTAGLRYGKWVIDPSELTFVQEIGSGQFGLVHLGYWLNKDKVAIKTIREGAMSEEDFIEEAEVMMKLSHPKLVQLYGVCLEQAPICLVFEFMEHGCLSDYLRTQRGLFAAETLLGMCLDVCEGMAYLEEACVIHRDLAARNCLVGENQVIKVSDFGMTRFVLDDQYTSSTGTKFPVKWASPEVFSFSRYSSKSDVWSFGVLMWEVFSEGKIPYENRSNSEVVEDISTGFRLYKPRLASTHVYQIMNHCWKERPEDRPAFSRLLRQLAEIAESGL

[8] = Inhibition of mouse EGFR del-T790M mutant stably expressed in mouse BaF3 cells assessed as cell viability incubated for 3 days by Cell Titer-Glo assay; type: cell-based; conditions: BaF3, 72 h
[9] = Inhibition of mouse EGFR V769_D770insASV mutant stably expressed in mouse BaF3 cells assessed as cell viability incubated for 3 days by Cell Titer-Glo assay; type: cell-based; conditions: BaF3, 72 h
[10] = Toxicity in SCID mouse assessed as signs of clinical toxicity at 100 mg/kg, po administered for 7 consecutive days; type: organism-based; conditions: in vivo
[11] = Inhibition of mouse EGFR N771_H773dup H773_V774insNPH […] (NPH) mutant stably expressed in mouse BaF3 cells assessed as cell viability incubated for 3 days by Cell Titer-Glo assay; type: cell-based; conditions: BaF3, 72 h
[12] = Inhibition of mouse EGFR L858R-T790M mutant stably expressed in mouse BaF3 cells assessed as cell viability incubated for 3 days by Cell Titer-Glo assay; type: cell-based; conditions: BaF3, 72 h
BaF3 [13] = experiment: In vivo antitumor activity against mouse BaF3 cells expressing EGFR exon 20 insertion (ex20ins) ASV implanted in SCID mouse assessed as tumor growth inhibition at 30 mg/kg, po administered for 7 consecutive days; type: functional; conditions: BaF3, 168 h, time 7 day, read-out: TGI
[14] = biological target: T3, Tyrosine-protein kinase Tec (Homo sapiens) (UniProt P42680); experiment: Inhibition of human TEC at 1 uM by hotspot assay relative to control
T3 sequence (whole entry): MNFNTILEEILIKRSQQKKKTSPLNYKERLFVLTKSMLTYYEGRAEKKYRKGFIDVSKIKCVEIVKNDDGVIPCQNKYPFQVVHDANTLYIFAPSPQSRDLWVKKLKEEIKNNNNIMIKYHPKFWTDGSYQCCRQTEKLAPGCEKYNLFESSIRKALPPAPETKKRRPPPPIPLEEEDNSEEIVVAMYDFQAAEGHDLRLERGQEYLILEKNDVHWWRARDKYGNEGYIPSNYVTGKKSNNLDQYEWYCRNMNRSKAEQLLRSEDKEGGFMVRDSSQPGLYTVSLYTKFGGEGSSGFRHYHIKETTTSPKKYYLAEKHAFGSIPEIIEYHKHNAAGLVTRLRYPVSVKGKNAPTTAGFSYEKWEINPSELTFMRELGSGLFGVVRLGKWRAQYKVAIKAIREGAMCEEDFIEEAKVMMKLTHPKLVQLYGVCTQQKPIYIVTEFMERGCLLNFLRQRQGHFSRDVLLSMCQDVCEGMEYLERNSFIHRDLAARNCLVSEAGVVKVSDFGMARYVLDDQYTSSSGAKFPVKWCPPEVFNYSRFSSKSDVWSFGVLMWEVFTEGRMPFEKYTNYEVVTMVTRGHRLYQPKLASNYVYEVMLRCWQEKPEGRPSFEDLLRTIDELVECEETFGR

[15] = Inhibition of mouse EGFR common activating deletion mutant stably expressed in mouse BaF3 cells assessed as cell viability incubated for 3 days by Cell Titer-Glo assay; type: cell-based; conditions: BaF3, 72 h
BaF3 [16] = experiment: In vivo antitumor activity against mouse BaF3 cells expressing EGFR exon 20 insertion (ex20ins) ASV implanted in SCID mouse assessed as tumor regression at 100 mg/kg, po administered for 7 consecutive days; type: functional; conditions: time 7 day
[17] = biological target: Tyrosine-protein kinase Blk (Homo sapiens) (UniProt P51451); experiment: Inhibition of human BLK at 1 uM by hotspot assay relative to control
Chain of Tyrosine-protein kinase Blk (Homo sapiens) (P51451 2-505 limits assumed): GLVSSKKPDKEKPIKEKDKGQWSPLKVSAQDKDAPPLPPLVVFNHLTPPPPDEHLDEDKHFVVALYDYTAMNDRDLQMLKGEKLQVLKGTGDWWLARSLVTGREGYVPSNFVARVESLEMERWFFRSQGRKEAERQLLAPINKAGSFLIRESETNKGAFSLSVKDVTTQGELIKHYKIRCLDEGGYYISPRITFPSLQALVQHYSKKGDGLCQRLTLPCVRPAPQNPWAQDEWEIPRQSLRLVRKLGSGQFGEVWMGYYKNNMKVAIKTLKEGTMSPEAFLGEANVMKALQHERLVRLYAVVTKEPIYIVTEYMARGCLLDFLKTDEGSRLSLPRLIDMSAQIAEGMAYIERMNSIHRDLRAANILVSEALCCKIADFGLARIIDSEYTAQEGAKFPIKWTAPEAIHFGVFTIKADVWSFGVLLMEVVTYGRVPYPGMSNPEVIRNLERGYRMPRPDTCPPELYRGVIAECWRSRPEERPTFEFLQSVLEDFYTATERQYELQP

[18] = Inhibition of mouse EGFR D770_N771insNPG mutant stably expressed in mouse BaF3 cells assessed as cell viability incubated for 3 days by Cell Titer-Glo assay; type: cell-based; conditions: BaF3, 72 h

SMILES: C=CC(=O)Nc1cc(Nc2ncc(C(=O)OC(C)C)c(-c3cn(C)c4ccccc34)n2)c(OC)cc1N(C)CCN(C)C [MOBOCERTINIB]
- AUC(0-t) [1]: 341 ng·h/mL
- AUC(0-t) [2]: 1780 ng·h/mL
- Activity [3]: Non-Toxic
- inhibition [4]: > 97%
- inhibition [5]: > 81%
- IC50 (BaF3 [6]): 3950 nM
- inhibition [7]: > 81%
- IC50 [8]: 6.3 nM
- IC50 [9]: 11 nM
- Activity [10]: Non-Toxic
- IC50 [11]: 18.1 nM
- IC50 [12]: 21.3 nM
- inhibition in vivo at 30 mg/kg (BaF3 [13]): 77%
- inhibition [14]: > 81%
- IC50 [15]: 2.7 nM
- Activity (BaF3 [16]): -98%
- inhibition [17]: > 81%
- IC50 [18]: 4 nM
